Reference: patent EP1140984B1, “SELECTIVE INHIBITORS OF MMP-12” (Aventis Pharmaceuticals Inc., priority 1998, dated 2000)
pKi: −log10 of the molar value. Where a name gives a salt, the structure may show the parent alone.

Tests used:
MMP-12 = molecular target: T1, MMP-12 (Homo sapiens, UniProt P39900); assay: Determination of inhibition constant (Ki) for MMP-12 (macrophage metalloelastase), fluorogenic substrate assay, cuvette or microtiter plate; type: biochemical; conditions: substrate Mca-Pro-Leu-Gly-Leu-Dpa-Ala-Arg-NH2, 25°C, pH 7.6, [MMP-12] = 2 nM
T1 construct: made in house
T1 sequence (P39900 106-263 limits assumed): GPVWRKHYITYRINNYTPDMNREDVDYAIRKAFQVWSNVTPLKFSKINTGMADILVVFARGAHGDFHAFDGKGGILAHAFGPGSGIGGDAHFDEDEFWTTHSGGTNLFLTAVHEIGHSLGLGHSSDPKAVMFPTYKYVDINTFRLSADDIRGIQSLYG
Protocol: MMP-12 (EC 3.4.24.65) was cloned, expressed and purified according to Shapiro, S.D. et al., J Biol. Chem. 268, 23824-23829 (1993). […] Aliquots of MMP-12 were stored at -70C.
The potency of inhibitors of MMP-12 was measured using either quartz cuvettes or microtiter plates. The activity of MMP-12 was measured using a fluorogenic substrate, Mca-Pro-Leu-Gly-Leu-Dpa-Ala-Arg-NH2, Knight, C.G. et al., FEBS Lett. 296, 263-266 (1992), at 25°C in an assay buffer containing 50 mM Tris, pH 7.6, 0.2 M sodium chloride, 50 mM calcium chloride, and 0.02% Brij-35. The increase in fluorescence due to cleavage of Gly-Leu peptide bond by MMP-12 was monitored with a Perkin-Elmer LS50B Fluorimeter (λex 328 nm, λem 393 nm, excitation slit 2.5, emission slit 10) for the cuvette assay and with a Molecular Devices Fmax fluorescence plate reader (λex 320 nm, λem 405 nm) for the microtiter plate assay. Substrate and inhibitor stock solutions were made in N,N-dimethylformamide (DMF) and 0.1% HCl-DMF, respectively.
Ki values were determined using the cuvette method by preparing a series of intermediate inhibitors solutions in 0.1% HCl-DMF and mixing the inhibitor with substrate (final concentration 2 µM) in a quartz cuvette containing 2 ml of assay buffer. MMP-12 was added to start the reaction at a concentration of 2 nM and progress curves were generated. For routine measurement of a Ki value for a reversible competitive inhibitor, the initial rates in the presence of at least four inhibitor concentrations (two concentrations above and two concentrations below the Ki) were measured [S] = 2 µM (<<Km) and [MMP-12] = 2 nM. Under these conditions, the measured Ki,app is close to the true Ki.
Ki values were determined using the microtiter plate method in a manner similar to that described for the cuvette method with some modifications. Four different inhibitor concentrations (50 µl in assay buffer) of each compound were added to separate wells of a microtiter plate and substrate was added (100 µl) to get a final concentration of […]. MMP-12 was added to a final concentration of 2 nM (50 µl) to start the reaction. Cleavage of substrate was recorded every 30 seconds for 30 minutes and progress curves were generated.
The Ki for a competitive inhibitor was calculated using: Vo/Vi = (1+[I]/Ki,app) and Ki = Ki,app/(1+[S]/Km), where Vo is the initial rate in the absence of inhibitor, Vi is the initial rate in the presence of inhibitor at the concentration of [I], [S] is the substrate concentration, and Km is the Michaelis constant. If slow binding is observed (i.e. if the approach to the binding equilibium is slow), the final steady-state rate rather than the initial rate is taken as Vi.

MMP-3 = molecular target: T2, MMP-3 (Homo sapiens, UniProt P08254); assay: Determination of inhibition constant (Ki) for MMP-3, fluorogenic substrate assay; type: biochemical; conditions: substrate Mca-Pro-Leu-Gly-Leu-Dpa-Ala-Arg-NH2, 37°C, pH 7.6, [S] = 1 µM, [MMP-3] = 1 nM
T2 construct: The active MMP-3 was obtained by treatment of proMMP-3 with trypsin; endogenous in cells; host or cells: human rheumatoid synovial fibroblasts stimulated with macrophage-conditioned medium
T2 sequence (P08254 100-477): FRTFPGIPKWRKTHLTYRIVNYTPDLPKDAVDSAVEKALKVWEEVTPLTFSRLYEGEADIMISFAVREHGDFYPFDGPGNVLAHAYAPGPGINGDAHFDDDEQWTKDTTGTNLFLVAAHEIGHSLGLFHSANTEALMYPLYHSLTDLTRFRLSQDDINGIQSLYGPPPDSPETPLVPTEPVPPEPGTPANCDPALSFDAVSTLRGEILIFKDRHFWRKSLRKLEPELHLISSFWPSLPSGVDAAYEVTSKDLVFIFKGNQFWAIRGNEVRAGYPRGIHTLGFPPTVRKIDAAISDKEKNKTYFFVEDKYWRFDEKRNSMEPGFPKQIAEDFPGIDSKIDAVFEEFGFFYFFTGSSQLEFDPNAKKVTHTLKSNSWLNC
Protocol: ProMMP-3 (EC 3.4.24.17; Stromelysin-1) was purified from culture medium of human rheumatoid synovial fibroblasts stimulated with macrophage-conditioned medium according to Okada, Y. et al., J. Biol. Chem. 261, 14245-14255 (1986). The active MMP-3 was obtained by treatment of proMMP-3 with trypsin (5 µg/mL) at 37°C for 30 minutes, followed by addition of soybean trypsin inhibitor (50 µg/mL). Aliquots of the activated MMP-3 were stored at -20°C.
The activated MMP-3 is assayed using a fluorogenic substrate, Mca-Pro-Leu-Gly-Leu-Dpa-Ala-Arg-NH2, Knight, C.G. et al., FEBS Lett. 296, 263-266 (1992), at 37°C in an assay buffer containing 50 mM Tris, pH 7.6, 0.2 M sodium chloride, 50 mM calcium chloride, and 0.02% Brij-35. The increase in fluorescence due to cleavage of Gly-Leu peptide bond by MMP-3 was monitored with Perkin-Elmer LS50B Fluorimeter (λex 328 nm, λem 393 nm, excitation slit 2.5, emission slit 10). Substrate and inhibitor stock solutions were made in DMF and 0.1% HCI-DMF, respectively. For determination of Ki values for MMP-3 inhibitors, a series of intermediate inhibitor solutions were prepared in 0.1% HCl-DMF and 1 or 2 µL of the diluted inhibitor solution was mixed with 1 µL of 2 mM substrate solution in DMF in a quartz cuvette containing 2 mL of assay buffer. The enzyme (10 µL of 0.2 µM MMP-3 dilution in assay buffer) was added at the last to start the reaction. For routine measurement of a Ki value for a reversible, competitive inhibitor, the initial rates in the presence of at least four inhibitor concentrations (two concentrations above Ki and two concentrations below Ki) were measured using [S] = 1 µM (<< Km) and [MMP-3] = 1 nM. Under these conditions, the measured Ki, app is close to true Ki.
The Ki for a competitive inhibitor is calculated using: v0/vi = (1 + [I]/Ki, app) and Ki = Ki, app/(1 + [S]/Km), where v0 is the initial rate in the absence of inhibitor, vi is the initial rate in the presence of inhibitor at the concentration of [I], [S] is the substrate concentration, and Km is the Michaelis constant. If slow binding is observed (i.e. if the approach to the binding equilibrium is slow), the final steady-state rate rather than the initial rate is taken as vi.

Compound | pKi (MMP-12) | pKi (MMP-3)
CC(C)C[C@H](NC(=O)C(S)C(C)C)C(=O)N[C@@H](Cc1ccccc1)C(=O)O (stereo in doubt) [Example 3, (S)-2-Mercapto-3-methylbutyroyl-(L)-leucyl-(L)-phenylalanine] | 7.85 | 5.85
CSCC[C@H](NC(=O)C(S)C(C)C)C(=O)N[C@@H](Cc1ccccc1)C(=O)O (stereo in doubt) [Example 4, (S)-2-Mercapto-3-methylbutyroyl-(L)-methionyl-(L)-phenylalanine] | 7.85 | 6.35
CCCC(S)C(=O)N[C@@H](CCc1ccccc1)C(=O)N[C@@H](Cc1ccccc1)C(=O)O (some centres unmarked) [Example 1, 2-Mercapto-pentanoyl-(L)-homo-phenylalanyl-(L)-phenylalanine] | 7.89 | 6.12
CC(C)[C@H](S)C(=O)N[C@@H](CCc1ccccc1)C(=O)N[C@@H](Cc1ccccc1)C(=O)O [Example 2, (S)-2-Mercapto-3-methylbutyroyl-(L)-homo-phenylalanyl-(L)-phenylalanine] | 8.40 | 6.44

The remaining lines, values ahead:

pKi (MMP-12) | pKi (MMP-3) | Compound
6.82 | 5.81 | CC(C)C(S)C(=O)N[C@@H](CCCCN)C(=O)N[C@@H](Cc1ccccc1)C(=O)O (stereo in doubt) [Example 5, (S)-2-Mercapto-3-methylbutyroyl-(L)-lysyl-(L)-phenylalanine trifluoroacetic acid salt]
7.85 | 7.85 | CCCC(S)C(=O)N[C@@H](CCc1ccccc1)C(=O)N[C@@H](Cc1ccccc1)C(=O)NC (stereo partly drawn) [Example 6, (S)-2-Mercaptopentanoyl-(L)-homo-phenylalanyl-(L)-phenylalanine N-methyl amide]
9.22 | 8.00 | CNC(=O)[C@H](Cc1ccccc1)NC(=O)[C@H](CCc1ccccc1)NC(=O)[C@@H](S)C(C)C [Example 7, (S)-2-Mercapto-3-methylbutyroyl-(L)-homo-phenylalanyl-(L)-phenylalanine N-methyl amide]
